Here are results for seven compounds from patent publication US10105357B2, “Indication of antibiotic drugs for preparation of cancer inhibition pharmaceutical composition” (LAUNX BIOMEDICAL CO., LTD., priority 2014, dated 2018).

Structures can show the parent of a compound that is named as a salt. Where two headings read alike, the source gives them in different places.

In general, viability refers to a read-out of living cells in per cent, often relative to untreated cells.

Assay [1] has as its system LoVo (Colorectal Adenocarcinoma). The assay is described as follows: Cell viability analysis, colon cancer LoVo. In kind it is cell-based, human. The conditions noted are these: Homo sapiens, LoVo.
Assay [2] concerns MKN-45 (Gastric Adenocarcinoma). Put plainly: Cell viability analysis, gastric cancer MKN-45. In kind it is cell-based, human. The conditions noted are these: Homo sapiens.
In assay [3] the test system is HI650 (Lung Adenocarcinoma). The assay is described as follows: Cell viability analysis, lung cancer HI650. In kind it is cell-based, human. The conditions noted are these: Homo sapiens.
Assay [4] deals with HCT116 (p53+) (Colorectal Carcinoma). Put plainly: cells. The conditions noted are these: Homo sapiens, HCT-116, 72 h, read-out: cell viability (survival rate), HCT116.
In assay [5] the test system is MCF7 (Mammary Gland, Adenocarcinoma). Put plainly: Cell viability analysis, breast cancer MCF7. In kind it is cell-based, human. The conditions noted are these: Homo sapiens.
For assay [6], the system named is HeLa (Cervix Adenocarcinoma). The assay is described as follows: Cell viability analysis, cervical cancer HeLa. In kind it is cell-based, human. The conditions noted are these: Homo sapiens, HeLa.
For assay [7], the system named is A375 (Amelanotic Melanoma). The assay is described as follows: Cell viability analysis, skin cancer A375. In kind it is cell-based, human. The conditions noted are these: Homo sapiens.
Assay [8] deals with HL-60 (Acute Promyelocytic Leukemia). The assay is described as follows: Cell viability analysis, leukemia HL-60. In kind it is cell-based, human. The conditions noted are these: Homo sapiens.
Assay [9] deals with TSGH-8301 (Urinary Bladder Carcinoma). Put plainly: Cell viability analysis, bladder cancer TSGH-8301. In kind it is cell-based, human. The conditions noted are these: Homo sapiens.
Assay [10] concerns HepG2 (Hepatocellular Carcinoma). The assay is described as follows: Cell viability analysis, hepatic cancer HepG2. The conditions noted are these: Homo sapiens. In kind it is cell-based, human.
The test system of assay [11] is PC3 (p53−) (Prostate Adenocarcinoma). The assay is described as follows: Cell viability analysis, prostate cancer PC3. The conditions noted are these: Homo sapiens. In kind it is cell-based, human.
For assay [12], the system named is AGS (Gastric Adenocarcinoma). The assay is described as follows: Cell viability analysis, gastric cancer AGS. The conditions noted are these: Homo sapiens. In kind it is cell-based, human.
The test system of assay [13] is A549 (Lung Adenocarcinoma). Put plainly: Cell viability analysis, lung cancer A549. In kind it is cell-based, human. The conditions noted are these: Homo sapiens.
The next assay has as its system cancer cell lines. The assay is described as follows: Cell viability analysis (WST-1) on cancer cell lines. In kind it is cell-based, human. The conditions noted are these: drug 10 μM, 72 hours, WST-1; Table 3. In general terms: Tetrazolium dyes change colour on reduction, which living cells bring about.
[14] abbreviates: 72 h, read-out: cell viability (survival rate), LoVo, drug 10 μM, 72 hours, WST-1, OD450 nm.
The mark [15] stands for this setting: MKN-45, 72 h, read-out: cell viability (survival rate), MKN-45, drug 10 μM, 72 hours, WST-1, OD450 nm.
The mark [16] stands for this setting: NCI-H1650, 72 h, read-out: cell viability (survival rate), H1650, drug 10 μM, 72 hours, WST-1, OD450 nm.
Where [17] appears, read: MCF7, 72 h, read-out: cell viability (survival rate), MCF7, drug 10 μM, 72 hours, WST-1, OD450 nm.
Setting [18] is: 72 h, read-out: cell viability (survival rate), HeLa, drug 10 μM, 72 hours, WST-1, OD450 nm.
Where [19] appears, read: A-375, 72 h, read-out: cell viability (survival rate), A375, drug 10 μM, 72 hours, WST-1, OD450 nm.
Where [20] appears, read: HL-60, 72 h, read-out: cell viability (survival rate), HL-60, drug 10 μM, 72 hours, WST-1, OD450 nm.
Setting [21] is: 72 h, read-out: cell viability (survival rate), TSGH, drug 10 μM, 72 hours, WST-1, OD450 nm.
Where [22] appears, read: HepG2, 72 h, read-out: cell viability (survival rate), HepG2, drug 10 μM, 72 hours, WST-1, OD450 nm.
Setting [23] is: 72 h, read-out: cell viability (survival rate), PC3, drug 10 μM, 72 hours, WST-1, OD450 nm.
Where [24] appears, read: 72 h, read-out: cell viability (survival rate), AGS, drug 10 μM, 72 hours, WST-1, OD450 nm.
Setting [25] is: A549, 72 h, read-out: cell viability (survival rate), A549, drug 10 μM, 72 hours, WST-1, OD450 nm.
The mark [26] stands for this setting: MKN-45, 72 h, drug 10 μM, 72 hours, WST-1, OD450 nm, read-out: cell viability (survival rate), MKN-45.
The mark [27] stands for this setting: NCI-H1650, 72 h, drug 10 μM, 72 hours, WST-1, OD450 nm, read-out: cell viability (survival rate), H1650.
The mark [28] stands for this setting: MCF7, 72 h, drug 10 μM, 72 hours, WST-1, OD450 nm, read-out: cell viability (survival rate), MCF7.
The mark [29] stands for this setting: 72 h, drug 10 μM, 72 hours, WST-1, OD450 nm, read-out: cell viability (survival rate), HeLa.
[30] abbreviates: A-375, 72 h, drug 10 μM, 72 hours, WST-1, OD450 nm, read-out: cell viability (survival rate), A375.
Where [31] appears, read: HL-60, 72 h, drug 10 μM, 72 hours, WST-1, OD450 nm, read-out: cell viability (survival rate), HL-60.
[32] abbreviates: 72 h, drug 10 μM, 72 hours, WST-1, OD450 nm, read-out: cell viability (survival rate), TSGH.
Setting [33] is: HepG2, 72 h, drug 10 μM, 72 hours, WST-1, OD450 nm, read-out: cell viability (survival rate), HepG2.
[34] abbreviates: 72 h, drug 10 μM, 72 hours, WST-1, OD450 nm, read-out: cell viability (survival rate), PC3.
The mark [35] stands for this setting: 72 h, drug 10 μM, 72 hours, WST-1, OD450 nm, read-out: cell viability (survival rate), AGS.
The mark [36] stands for this setting: A549, 72 h, drug 10 μM, 72 hours, WST-1, OD450 nm, read-out: cell viability (survival rate), A549.

For `Nc1c2ccccc2nc2ccccc12` [9-Aminoacridine], the viability at 10 µM in [1] (setting [14]) was determined as 58.5%; in assay [2] (setting [15]), 63.1%; in assay [3] (setting [16]), 56.9%; in [4], 70.5%; in [5] (setting [17]) it was 34.1%; in [6] (setting [18]) it was 43.6%. Also, the viability at 10 µM amounted to 36.4% in [7] (setting [19]); 28.8% in assay [8] (setting [20]); 34.6% in assay [9] (setting [21]); 63.5% in assay [10] (setting [22]); 38.7% in assay [11] (setting [23]); 42.8% in [12] (setting [24]). In addition, the viability at 10 µM in assay [13] (setting [25]) was 25.8%.

For the compound `CCCCCCCCCCCCCCCC[n+]1ccccc1` [Cetylpyridinium Chloride], the viability at 10 µM in assay [1] (72 h, read-out: cell viability (survival rate), LoVo) turned out to be 50.7%; in [2] (MKN-45, 72 h, read-out: cell viability (survival rate), MKN-45) it was 47.4%; in [3] (NCI-H1650, 72 h, read-out: cell viability (survival rate), H1650), 48.7%; in assay [4], 33.6%; in assay [5] (MCF7, 72 h, read-out: cell viability (survival rate), MCF7), 40.9%; in assay [6] (72 h, read-out: cell viability (survival rate), HeLa), 37.1%. The viability at 10 µM was 35.6% in [7] (A-375, 72 h, read-out: cell viability (survival rate), A375); 30.8% in assay [8] (HL-60, 72 h, read-out: cell viability (survival rate), HL-60); 37.2% in assay [9] (72 h, read-out: cell viability (survival rate), TSGH); 60.9% in [10] (HepG2, 72 h, read-out: cell viability (survival rate), HepG2); 37.1% in [11] (72 h, read-out: cell viability (survival rate), PC3); 33.4% in [12] (72 h, read-out: cell viability (survival rate), AGS). The viability at 10 µM in assay [13] (A549, 72 h, read-out: cell viability (survival rate), A549) was determined as 29.2%.

Take `CCCCC(CC)CNC(=N)NC(=N)NCCCCCCNC(=N)NC(=N)NCC(CC)CCCC` (stereo not shown) [Alexidine HCl]: the viability at 10 µM in assay [1] (setting [14]) was 54.6%; in assay [2] (setting [26]), 64.4%; in assay [3] (setting [27]) it was 57.5%; in assay [4], 65.8%; in assay [5] (setting [28]) it was 34.8%; in [6] (setting [29]) it was 44.9%. Further, the viability at 10 µM in assay [7] (setting [30]) amounted to 38.1%; in [8] (setting [31]), 29.4%; in assay [9] (setting [32]), 36.6%; in assay [10] (setting [33]), 65.9%; in assay [11] (setting [34]) it was 38%; in assay [12] (setting [35]), 45.1%. In assay [13] (setting [36]), the viability at 10 µM is 25.3%.

Regarding `CO[C@@]1(NC(=O)C(C(=O)O)c2ccc(O)cc2)C(=O)N2C(C(=O)O)=C(CSc3nnnn3C)CO[C@@H]21` (stereo partly shown) [Moxalactam Disodium], the viability at 10 µM in [1] (setting [14]) came out at 94%; in assay [2] (setting [15]), 110%; in [3] (setting [16]), 66.9%; in [4], 73.9%; in assay [5] (setting [17]) it was 80.7%; in assay [6] (setting [18]), 61.3%. Moreover, the viability at 10 µM was found to be 80.8% in [7] (setting [19]); 55.9% in assay [9] (setting [21]); 79.1% in assay [10] (setting [22]); 95% in [11] (setting [23]); 76.9% in assay [12] (setting [24]); 76.6% in [13] (setting [25]). Also, the “inhibition effect on different cancer cell lines” value in the assay with cancer cell lines is “significant inhibition effect”.

For the compound `COc1cc(/C=C/C(=O)CC(=O)/C=C/c2ccc(O)c(OC)c2)ccc1O` [Curcumin], the viability at 10 µM was 80% in [1] (setting [14]); 46.4% in [2] (setting [15]); 74.7% in assay [3] (setting [16]); 93.6% in [4]; 61.8% in assay [5] (setting [17]); 66.2% in [6] (setting [18]). Also, the viability at 10 µM in assay [7] (setting [19]) was found to be 104%; in [8] (setting [20]) it was 111%; in assay [9] (setting [21]), 95.4%; in [10] (setting [22]), 98.3%; in assay [11] (setting [23]), 77.9%; in assay [12] (setting [24]), 72.2%. The viability at 10 µM in assay [13] (setting [25]) was 105%.

As for `CCC1(C)CC(=O)NC(=O)C1` [Bemegride], the viability at 10 µM stood at 88.5% in assay [1] (drug 10 μM, 72 hours, WST-1, OD450 nm, read-out: cell viability (survival rate), LoVo); 99.7% in [2] (MKN-45, drug 10 μM, 72 hours, WST-1, OD450 nm, read-out: cell viability (survival rate), MKN-45); 69.9% in [3] (NCI-H1650, drug 10 μM, 72 hours, WST-1, OD450 nm, read-out: cell viability (survival rate), H1650); 47.7% in assay [4]; 123% in [5] (MCF7, drug 10 μM, 72 hours, WST-1, OD450 nm, read-out: cell viability (survival rate), MCF7); 62.7% in assay [6] (drug 10 μM, 72 hours, WST-1, OD450 nm, read-out: cell viability (survival rate), HeLa). For the same compound, the viability at 10 µM in assay [7] (A-375, drug 10 μM, 72 hours, WST-1, OD450 nm, read-out: cell viability (survival rate), A375) worked out at 62.7%; in [8] (HL-60, drug 10 μM, 72 hours, WST-1, OD450 nm, read-out: cell viability (survival rate), HL-60) it was 125%; in assay [9] (drug 10 μM, 72 hours, WST-1, OD450 nm, read-out: cell viability (survival rate), TSGH), 93.3%; in assay [10] (HepG2, drug 10 μM, 72 hours, WST-1, OD450 nm, read-out: cell viability (survival rate), HepG2), 90.7%; in assay [11] (drug 10 μM, 72 hours, WST-1, OD450 nm, read-out: cell viability (survival rate), PC3) it was 113%; in assay [12] (drug 10 μM, 72 hours, WST-1, OD450 nm, read-out: cell viability (survival rate), AGS), 62%. For the same compound, the viability at 10 µM in assay [13] (A549, drug 10 μM, 72 hours, WST-1, OD450 nm, read-out: cell viability (survival rate), A549) was determined as 60.2%.

Regarding `CC(=O)Nc1ncc([N+](=O)[O-])s1` [Nithiamide], the viability at 10 µM in assay [1] (setting [14]) turned out to be 89.8%; in assay [2] (setting [26]) it was 76.7%; in assay [3] (setting [27]), 67.1%; in assay [4], 86.9%; in assay [5] (setting [28]) it was 65.5%; in assay [6] (setting [29]), 83%. Also, the viability at 10 µM in assay [7] (setting [30]) was 96.7%; in [8] (setting [31]), 102%; in [9] (setting [32]), 122%; in assay [10] (setting [33]), 94.8%; in assay [11] (setting [34]), 74.5%; in [12] (setting [35]), 102%. The viability at 10 µM in [13] (setting [36]) turned out to be 39.3%.
